Assay results as given in patent US9315532B2, “Fatty acid carbohydrate hybrid molecules as therapeutic agents and methods thereof” (The Johns Hopkins University, priority 2005, dated 2016).

Columns and labels:
Jurkat cells [1] = experiment: Toxicity and growth inhibition assays (cell counts on days 3, 5 and 15); assay type: cell-based, human; conditions: Jurkat cells, 0-320 μM
Experimental: For cell culture studies, But4ManNAc (1) (50) was used as a mixture of anomers (α/β=10/90), But4GlcNAc (2) as pure α-anomer and But5Man (3) as pure β-anomer (It is noteworthy that the intracellular hydrolysis of butyrate esters makes the anomeric configuration less relevant in these studies and we found similar cellular effects between the α- and β-anomers in long term toxicity). Stock solutions of the sugar analogs were made in ethanol at concentrations of 10 mM and 50 mM. In the case of cells growing in suspension the solutions of 1-4 (or an ethanol control at an equivalent volume) were coated onto dishes and the ethanol was allowed to evaporate prior to plating. Unless otherwise noted, throughout this study Jurkat cells (Clone E-6, ATCC, Manassas, Va.) were cultured in RPMI 1640 medium supplemented with 300 mg/L glutamine, 5.0% fetal bovine serum (HyClone, Logan, Utah) and 1.0% of a 100× dilution of a pen/strep stock solution containing penicillin (100 units/mL) and streptomycin (100 μg/mL); HL-60 cells (ATCC, Manassas, Va.) were cultured in RPMI 1640 medium supplemented with 10% FBS and pen/strep; and AD293 (HEK) cells (Stratagene, La Jolla, Calif.) were grown in DMEM medium with 10% FBS and pen/strep. In all cases, cells were incubated in a standard 37° C. in a 5.0% CO2, water-saturated environment. Cell counting was performed with a Beckman-Coulter Z2 particle counter and hemacytometer.
Solutions of the analogs in EtOH (10 mM stock) were coated onto 24-well plates at a range of concentrations from 0-320 μM and ethanol was allowed to evaporate. Jurkat cells (1.0×10^5 cells) in 0.5 mL of medium were plated in each well (day 0). On days 3 and 5, fresh medium (1.0 mL) was added to each well. Cell cultures were mixed by gentle pipetting and 100 μL of cell suspension was taken from each well and counted. On days 7, 9, 11, 13 and 15, 1.0 mL of cell suspension was removed from each well after thorough mixing and fresh medium (1.0 mL) was added. Cells were counted on day 15 and the cell density was plotted as a percentage of control (as was done for cell counts from days 3 and 5).

Jurkat cells [2] = experiment: Flow cytometry analysis of cell cycle status (PI/RNase A); assay type: cell-based, human; conditions: human cancer cells
Experimental: The cell cycle arrest induced by butyrate analogs was studied following the standard protocol (49). Briefly, Jurkat cells (2.3×10^5 cells/mL) were incubated with various concentrations of 1 (0, 25, 50, 75, 100, 150 and 200 μM); 2 (200 μM); 3 (200 μM); and 4 (200 μM) for five days. The cells were then harvested, counted, washed twice with PBS, re-suspended in PBS (500 μL), added to a cold solution of 78% aqueous ethanol (4.5 mL) using a glass Pasteur pipette and kept at 2.0° C. for at least 24 h. The fixed cells were centrifuged twice to remove the ethanol completely, re-suspended in propidium iodide (PI)/ribonuclease A (RNase A) staining buffer (BD Pharmingen, Catalog No. 550825, San Diego, Calif.) (500 μL for 1.0×10^6 cells), incubated at 37° C. for 15 min and analyzed by flow cytometry. The cellular aggregates were excluded from single cell populations using an area-width plot (FL2—PT fluorescence) for the cell cycle status determination. At least 10,000 gated events were counted for each determination.
Jurkat cells (2.5×10^5 cells/mL) were incubated with either ethanol (0.2%) or 1 (100 μM or 200 μM). Aliquots of cell suspensions were taken on day 0 and days 2-6, washed with PBS (twice) and fixed in 75% ethanol at 2.0° C. for at least 48 h. The cells were stained with PI/RNase staining buffer and analyzed by flow cytometry as given above.

[3] = system: sialic acid biosynthesis in Jurkat cells; experiment: Assay for total sialic acid production (periodate-resorcinol); assay type: cell-based, human; conditions: 50 and 100 mM, 48 h
Experimental: Jurkat cells (5.0×10^6 cells in 10 mL medium) were incubated with 1-5 at various concentrations. […] The cell lysates were analyzed by using an adapted version of the periodate-resorcinol assay (36, 59) with the periodic acid oxidation step performed on ice to allow quantification of total (i.e., free monosaccharide plus glycoconjugate-bound) sialic acid. For each assay, a standard curve was obtained using N-acetylneuraminic acid (Pfanstiehl, Waukegan, Ill.) for calibration.

Jurkat cells [4] = experiment: Toxicity of sodium butyrate (5) towards cells primed with ManNAc; assay type: cell-based, human
Experimental: Jurkat cells (5.0×10^5 per mL) were incubated with PBS and ManNAc at 50 or 100 mM. After 48 h, the cells were counted, harvested, washed once in fresh medium and plated in a 24-well plate containing various concentrations of sodium butyrate (5) (0-2.0 mM; a stock solution of 200 mM in PBS was used for dilutions and control samples). Cell cultures were maintained and growth was monitored for 15 days as described above under the toxicity and growth inhibition assays.

Jurkat cells [5] = experiment: Cell viability assay (trypan blue exclusion); assay type: cell-based, human; conditions: 200 μM
Experimental: Jurkat cells (2.0×10^5 cells/mL) were seeded with 1-4 at 200 μM in 6-well T. C. plates. Aliquots of cell suspension (20 μL) were removed on a daily basis diluted with either PBS (20 μL) or trypan blue solution (20 μL) and cell viability was determined by using the standard trypan blue exclusion method; three replicate counts were taken for each condition.

HeLa cells = experiment: Morphological changes to HeLa cells; assay type: cell-based, human; conditions: 3 days; 1 at 250 μM, 5 at 5.0 mM
Experimental: (§1) The studies on morphological changes induced by sodium butyrate (5) and But4ManNAc (1) were performed following a reported procedure (45). Briefly, HeLa cells (200,000 cells per well in a 6-well plate) were plated and allowed to form monolayers. After 24 h, the supernatant was aspirated, fresh medium (4.0 mL) was added and treated with either ethanol (20 μL (0.5%), control), 5 (5.0 mM), or 1 (250 μM). For the AD 293 (HEK) cells 2.0×10^6 cells in 10 mL of medium (100 mm tissue culture dishes) were plated and treated, immediately after plating, with either ethanol (50 μL, control), 5 (5.0 mM), or 1 (250 μM). Images were acquired at various time intervals under bright field using a Nikon Eclipse TE200 inverted microscope equipped with a DXM 1200 digital camera.

AD293 (HEK) cells = experiment: Morphological changes / toxicity in AD293 (HEK) cells; assay type: cell-based, human; conditions: 2 days; 1 at 250 μM, 5 at 5.0 mM
Experimental: as §1

p21WAF1/Cip1 promoter = experiment: Luc-p21WAF1/Cip1 luciferase reporter gene assay in AD293 (HEK) cells; assay type: cell-based, human
Experimental: The plasmid Luc-p21^Cip1/WAF1 (a gift from Vogelstein Laboratory, JHMI, Baltimore, Md.) was amplified and purified utilizing a plasmid maxi kit (Cat. No. 12163. Qiagen, Valencia, Calif.) following the manufacturer's protocol. HEK cells (2.5×10^5) were seeded in 3.0 mL medium and grown in 6-well T. C. plates. Transfection was performed using lipofectamine 2000 (Cat. No. 11668-019, Invitrogen, Carlsbad, Calif.) following the protocol supplier's protocol. Cells were trypsinized 24 h after transfection and seeded at 250,000 cells per well with concentrations of 1-4 shown in FIG. 3a or 1, 5, and ManNAc plus 5 at the concentrations shown in FIG. 3c. After 72 h, the cells were trypsinized, counted and lysed in 300 μL of luciferase cell culture lysis buffer and diluted five-fold in the same buffer. Luminometry was performed utilizing the ‘Luciferase Assay System’ (Cat. No. 1500, 4550, Promega, Madison, Wis.) following supplier's protocol. Luciferase Assay Reagent (100 μL) was added to the cell lysate (20 μL) in luminometer tubes (Cat. No. 55.476, Sarstedt, Newton, N.C.) and the luminescence was measured immediately using a Berthold Sirius Luminometer. The final values were normalized relative to ethanol-treated controls and reported on a per cell basis.

p21WAF1 = experiment: Endogenous p21WAF1 assay (anti-p21WAF1 antibody, flow cytometry) in Jurkat cells; assay type: cell-based, human; conditions: one week, 1 at 250 μM, 5 at 2.5 mM
Experimental: Endogenous expression of p21^WAF1 was detected following a reported procedure (58) with minor modifications. Jurkat cells (5.0×10^6 cells in 10 mL medium) were incubated with either ethanol or 1 (250 μM or 5 (2.5 mM). On a daily basis, aliquots of cells (˜1.0×10^6 per sample) were taken, washed with PBS (2×1.0 mL), fixed with Reagent A (Fix and Perm Kit, Caltag Laboratories, CA, Cat. No. GAS-003) for 10 min at room temperature, washed with washing buffer (PBS containing 5.0% FBS, 0.1% NaN3), re-suspended in 95% v/v methanol and kept on ice. After 30 min, cells were again washed with washing buffer and incubated with FITC-conjugated anti-p21^WAF1 antibody (Calbiochem, San Diego, Calif., Cat. No. OP64F) at 2.0 μg/mL in Reagent B (100 μL) (Fix and Perm Kit, Caltag Laboratories) for 1.0 h at room temperature in the dark. Finally, cells were re-suspended in washing buffer (500 μL) and analyzed by flow cytometry. Three replicate samples were taken for each condition and 10,000 events were counted for each sample.

Compound | long term growth characteristics (day 15) (Jurkat cells [1]) | apoptosis versus cell cycle arrest (summary) (Jurkat cells [2]) | level required for even partial cell inhibition and toxicity, when used separately (Jurkat cells [4]; Jurkat cells, day 15) | reduced cell viability in trypan blue assay (Jurkat cells [5]) | other results
CCCC(=O)OCC(COC(=O)CCC)OC(=O)CCC [compound 4, tributyrin, reference compound] | resumed cell growth over the long term | only provided transient cell cycle arrest | – | – | cell proliferation at early time points (days 3 & 5) (Jurkat cells [1]; days 3 and 5): minimal inhibition
CC(=O)N[C@@H]1C(O)O[C@H](CO)[C@@H](O)[C@@H]1O (stereo partly drawn) [ManNAc, N-acetyl-D-mannosamine, reference compound] | – | – | 100 mM | – | increase in total sialic acid [3]: 20-30 fold
CCCC(=O)OC[C@H]1O[C@H](OC(=O)CCC)[C@H](NC(C)=O)[C@@H](OC(=O)CCC)[C@@H]1OC(=O)CCC [compound 2, 2-Acetamido-1,3,4,6-tetra-O-butanoyl-2-deoxy-α-D-glucopyranose] | resumed cell growth over the long term | only provided transient cell cycle arrest | – | not | melting point: 152 to 154 °C
CCCC(=O)[O-].[Na+] [compound 5, Sodium n-butyrate, reference compound] | – | – | 2.0 mm | – | morphological changes / differentiation of HeLa cells (HeLa cells): growth of extended processes; apoptosis / toxicity in AD293 cells (AD293 (HEK) cells): toxicity; concentration level required for p21WAF1/Cip1 activation (p21WAF1/Cip1 promoter): millimolar concentrations required; endogenous p21WAF1 levels (p21WAF1): increased p21^WAF1 levels; growth of ManNAc-treated cells compared to untreated controls (Jurkat cells [4]; Jurkat cells pre-incubated with ManNAc 50 or 100 mM, 5 at 0-2.0 mM, five days): inhibited; concentration at which ManNAc-treated cells showed susceptibility (Jurkat cells [4]; Jurkat cells pre-incubated with ManNAc, day 15): ≥ 2.0 mM; growth of control cells (without ManNAc) (Jurkat cells [4]; Jurkat cells, 5 at 0-2.0 mM, day 15): almost completely recovered from early inhibition
CCCC(=O)OC[C@H]1OC(OC(=O)CCC)[C@@H](OC(=O)CCC)[C@@H](OC(=O)CCC)[C@@H]1OC(=O)CCC (stereo partly drawn) [compound 3, 1,2,3,4,6-Penta-O-butanoyl-α,β-D-mannopyranose] | resumed cell growth over the long term | only provided transient cell cycle arrest | – | not | –
